Reference: PubChem BioAssay (NCI)
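Dose response: 5 concentrations. Exposure: 48 h. Format: 96-well plates. Endpoint: linear interpolation; highest concentration if not reached. Here, GI50 denotes the concentration required for 50% inhibition of growth. At the TGI there is no net growth.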

Key:
Assay in all cases: growth of human tumour cells (NCI), 48 h
ACHN renal = system: ACHN renal
SK-MEL-5 melanoma = system: SK-MEL-5 melanoma
K-562 leukemia = system: K-562 leukemia
SF-539 CNS = system: SF-539 CNS
MCF7 breast = system: MCF7 breast
HS 578T breast = system: HS 578T breast
IGROV1 ovarian = system: IGROV1 ovarian
SNB-19 CNS = system: SNB-19 CNS
SF-268 CNS = system: SF-268 CNS
MDA-MB-231 breast = system: MDA-MB-231 breast
COLO 205 colon = system: COLO 205 colon
HCC-2998 colon = system: HCC-2998 colon

Row | SMILES | TGI (ACHN renal) | TGI (SK-MEL-5 melanoma) | TGI (K-562 leukemia) | TGI (SF-539 CNS) | TGI (MCF7 breast) | TGI (HS 578T breast) | TGI (IGROV1 ovarian) | TGI (SNB-19 CNS) | TGI (SF-268 CNS) | TGI (MDA-MB-231 breast) | TGI (COLO 205 colon) | TGI (HCC-2998 colon) | GI50 (SNB-19 CNS)
1 | Cc1ccc(O)c(C2=NNC(c3cccc(Cl)c3)C2)c1 (configuration not stated) | > 100 µM | > 100 µM | > 100 µM | > 100 µM | > 100 µM | 86.3 µM | 48.8 µM | 55.8 µM | > 100 µM | > 100 µM | > 100 µM | – | –
2 | Nc1ncc2c(n1)-c1ccccc1OC2N1CCOCC1 (configuration not stated) | > 100 µM | > 100 µM | > 100 µM | > 100 µM | > 100 µM | > 100 µM | > 100 µM | > 100 µM | > 100 µM | > 100 µM | > 100 µM | – | –
3 | COC(=O)/C(=N\N)C(C(=O)C(=O)Nc1nc(=S)[nH][nH]1)c1nc2ccc([N+](=O)[O-])cc2[nH]c1=O (configuration not stated) | > 100 µM | > 100 µM | > 100 µM | > 100 µM | – | – | > 100 µM | > 100 µM | > 100 µM | – | > 100 µM | > 100 µM | –
4 | O=C1c2c(O)cccc2Cc2cc(CO)cc(O)c21 | 12.4 µM | 3.75 µM | > 100 µM | – | – | – | 20.1 µM | 36.6 µM | 14.3 µM | 5.67 µM | 4.9 µM | 18.4 µM | –
5 | C/C=C1/C(=Cc2[nH]c(C=c3[nH]/c(=C/C4=NC(=O)C(CC)=C4C)c(C)c3CCC(=O)O)c(CCC(=O)O)c2C)NC(=O)C1C (configuration not stated) | > 50 µM | – | > 50 µM | 23 µM | – | – | > 50 µM | > 50 µM | > 50 µM | – | > 50 µM | > 50 µM | –
6 | O=C(O)CCC(NC(=O)c1ccc(Oc2nc3ccccc3nc2-c2ccccc2)cc1)C(=O)O (configuration not stated) | > 100 µM | – | > 100 µM | > 100 µM | > 100 µM | – | > 100 µM | > 100 µM | > 100 µM | > 100 µM | > 100 µM | > 100 µM | –
7 | COC(=O)C(=O)C(C(C)=O)C(=O)C(=O)Nc1ccc(C)cc1C (configuration not stated) | > 100 µM | > 100 µM | > 100 µM | > 100 µM | – | – | > 100 µM | > 100 µM | > 100 µM | – | > 100 µM | > 100 µM | –
8 | C/C(=N/N)c1sc(-c2nc(C)c(/C(C)=N\N)s2)nc1C | > 100 µM | > 100 µM | > 100 µM | > 100 µM | – | – | > 100 µM | > 100 µM | > 100 µM | – | > 68.9 µM | > 100 µM | –
9 | CN1N=C(c2ccccc2)c2cc(Cl)ccc2N=C1N/N=C/c1ccc(N(C)C)cc1 | > 100 µM | > 100 µM | > 100 µM | > 100 µM | > 100 µM | – | > 100 µM | > 100 µM | > 100 µM | > 100 µM | > 100 µM | > 100 µM | –
10 | CC(C)(C)OC(=O)C1/C(=C/CBr)CN1C(=O)OC(C)(C)C (configuration not stated) | 33 µM | 27.4 µM | 7.54 µM | 35.9 µM | 28.9 µM | 49.1 µM | 26.2 µM | 32.5 µM | 21.2 µM | – | 6.1 µM | 33.1 µM | –
11 | O=S(=O)(CF)OCCCCOS(=O)(=O)CF | > 100 µM | > 100 µM | > 100 µM | > 100 µM | – | – | > 100 µM | > 100 µM | > 100 µM | – | > 100 µM | – | –
12 | COc1cc2c(cc1O)C(=O)O[C@@H]1CC=C3CCN(C)[C@H]3[C@H]21 | > 25 µM | > 25 µM | > 25 µM | – | > 25 µM | > 25 µM | > 25 µM | > 25 µM | > 25 µM | > 25 µM | – | > 25 µM | –
13 | COC1(C)CNCC(C)(C)NC(=O)C(C)(OC)CNCC(C)(C)NC1=O (configuration not stated) | > 100 µM | > 100 µM | > 100 µM | > 100 µM | – | – | > 100 µM | > 100 µM | > 100 µM | – | > 100 µM | > 100 µM | –
14 | CCCCCC(/C=C/c1ncccc1OCCCCCC(=O)O)=N\NC1=NCCN1 | > 100 µM | – | > 100 µM | > 100 µM | – | – | > 100 µM | > 100 µM | > 100 µM | – | > 100 µM | > 100 µM | –
15 | CCOC(=O)c1ccn2c(c1)c(C#N)c1nc3ccccc3nc12 | > 100 µM | > 100 µM | > 100 µM | > 100 µM | – | – | 59.8 µM | > 100 µM | > 100 µM | – | > 100 µM | > 100 µM | –
16 | N#CCCN(CCC#N)c1ccc(/C=C(/NC(=O)Nc2ccccc2Cl)NC(=O)c2cc([N+](=O)[O-])ccc2Cl)cc1 | > 100 µM | > 100 µM | > 100 µM | > 100 µM | – | – | > 100 µM | > 100 µM | > 100 µM | – | > 100 µM | > 100 µM | –
17 | O=C1C2C3C=C4c5ccccc5N(c5ccccc5)C4([C@@H]2C(=O)N1c1ccc(F)cc1)[C@H]1C(=O)N(c2ccc(F)cc2)C(=O)[C@@H]31 (some centres not stated) | > 100 µM | – | > 100 µM | > 100 µM | – | – | – | > 100 µM | > 100 µM | – | > 100 µM | > 100 µM | –
18 | CCCCCCCCCCCCCCCCCCOCC(O)CO (configuration not stated) | – | 3.65 µM | > 25 µM | > 25 µM | > 25 µM | – | > 23.7 µM | > 25 µM | > 25 µM | – | > 25 µM | > 25 µM | –
19 | Cc1cc(C)c(C(=O)C(C)C(c2ccccc2)c2ccc(Cl)cc2)c(C)c1 (configuration not stated) | > 100 µM | > 100 µM | > 100 µM | > 100 µM | – | – | > 100 µM | > 100 µM | > 100 µM | – | > 100 µM | – | > 100 µM
20 | CC(=O)OC(C)c1cc2c(s1)C(=O)c1ccsc1C2=O (configuration not stated) | 0.31 µM | 0.0743 µM | 0.473 µM | 0.182 µM | 1.24 µM | 0.422 µM | 1.55 µM | 0.317 µM | 0.812 µM | – | 2.61 µM | 1.54 µM | –
21 | COc1cc2cnc3c4cc(OC)c(OC(C)C)cc4ccc3c2cc1OC | > 100 µM | > 100 µM | > 100 µM | > 100 µM | – | – | > 100 µM | > 100 µM | > 100 µM | – | > 100 µM | > 100 µM | –
22 | CCOC(=O)CCc1ccc(NC(=O)/C=C/c2ccc([N+](=O)[O-])o2)cc1 | 2.73 µM | 3.49 µM | – | 3.99 µM | 32.4 µM | > 100 µM | > 31.1 µM | > 71.6 µM | 7.63 µM | 3.94 µM | 5.29 µM | 7.61 µM | –
